# Assays:
# [1] = target: T1, STAT6 (Homo sapiens, UniProt P42226); assay: Competitive fluorescence polarization (FP) assay, STAT6; type: binding; details: for IC50: 106 nM STAT6, 10 nM tracer peptide; for Ki: Ki calculated from IC50, mean ± SD, n = 3
# T1 sequence (P42226 1-847): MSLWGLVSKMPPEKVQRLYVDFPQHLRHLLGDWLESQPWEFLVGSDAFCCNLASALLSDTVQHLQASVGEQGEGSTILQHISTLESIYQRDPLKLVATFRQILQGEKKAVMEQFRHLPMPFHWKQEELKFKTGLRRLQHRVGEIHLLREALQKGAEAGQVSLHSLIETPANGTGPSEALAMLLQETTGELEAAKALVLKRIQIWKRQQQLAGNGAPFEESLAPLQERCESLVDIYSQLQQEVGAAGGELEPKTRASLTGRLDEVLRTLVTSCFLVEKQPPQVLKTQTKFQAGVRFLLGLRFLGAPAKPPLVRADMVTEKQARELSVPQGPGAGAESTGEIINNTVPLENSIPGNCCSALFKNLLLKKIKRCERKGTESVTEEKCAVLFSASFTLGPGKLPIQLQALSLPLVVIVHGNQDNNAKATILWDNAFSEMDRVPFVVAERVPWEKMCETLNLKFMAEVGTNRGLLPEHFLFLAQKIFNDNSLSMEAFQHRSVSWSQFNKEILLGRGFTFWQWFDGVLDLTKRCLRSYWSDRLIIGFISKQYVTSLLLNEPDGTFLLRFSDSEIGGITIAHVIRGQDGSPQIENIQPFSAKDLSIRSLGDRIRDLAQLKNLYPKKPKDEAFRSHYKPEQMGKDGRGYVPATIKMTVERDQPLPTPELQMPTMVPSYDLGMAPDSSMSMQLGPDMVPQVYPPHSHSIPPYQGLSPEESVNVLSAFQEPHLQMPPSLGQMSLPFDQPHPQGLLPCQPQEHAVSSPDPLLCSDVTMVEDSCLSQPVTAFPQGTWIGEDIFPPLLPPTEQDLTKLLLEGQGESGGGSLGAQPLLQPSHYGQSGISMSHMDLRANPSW
# Experimental: (§1) Fluorescence polarization assays
# STAT4; 5-carboxyfluorescein-GpYDKPHVL for STAT1; 5-carboxyfluorescein-GpYLPQTV- […]
# (§2) fluorescent-labeled peptide was added. Samples were transferred to 384-well microtiter plates […]
# (§3) Experiments were carried out in triplicate. Percent binding was calculated based on a logarithmic curve fit using OriginPro 8G software. Conversion of IC50 values to Ki-values was […]
# (§4) Error bars represent standard deviations. […]
# (§5) Experiments were carried out in triplicate. […]
# [2] = target: T2, STAT4 (Homo sapiens, UniProt Q14765); assay: Isothermal titration calorimetry (ITC), binding to STAT4; details: 10 µM STAT4, 100 µM ligand, 25 °C, 10 mM Tris pH 8.0, 50 mM NaCl, 1 % DMSO; n = 3
# T2 construct: 6xHis; made in house
# T2 sequence (Q14765 1-748): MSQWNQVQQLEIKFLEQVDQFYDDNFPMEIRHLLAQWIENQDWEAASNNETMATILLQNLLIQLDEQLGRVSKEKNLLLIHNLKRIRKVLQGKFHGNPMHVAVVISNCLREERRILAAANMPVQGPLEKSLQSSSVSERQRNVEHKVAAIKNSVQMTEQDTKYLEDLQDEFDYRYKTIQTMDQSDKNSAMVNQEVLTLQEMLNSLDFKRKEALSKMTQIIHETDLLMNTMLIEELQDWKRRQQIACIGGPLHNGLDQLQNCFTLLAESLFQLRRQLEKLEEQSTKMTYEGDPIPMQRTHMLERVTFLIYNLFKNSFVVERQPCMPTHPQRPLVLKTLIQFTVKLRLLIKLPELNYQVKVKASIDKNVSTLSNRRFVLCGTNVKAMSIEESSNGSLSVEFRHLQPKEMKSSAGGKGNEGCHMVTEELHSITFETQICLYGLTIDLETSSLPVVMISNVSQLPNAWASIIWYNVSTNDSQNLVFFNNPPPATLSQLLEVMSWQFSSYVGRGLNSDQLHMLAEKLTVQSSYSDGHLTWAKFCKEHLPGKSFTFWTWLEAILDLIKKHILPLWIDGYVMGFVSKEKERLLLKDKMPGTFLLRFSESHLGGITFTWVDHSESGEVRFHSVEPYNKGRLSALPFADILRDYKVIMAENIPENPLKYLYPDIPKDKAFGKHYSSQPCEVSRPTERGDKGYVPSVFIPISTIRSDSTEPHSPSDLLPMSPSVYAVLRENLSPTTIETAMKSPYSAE
# Experimental: as §2, §3
# Error bars represent standard deviations.
# Isothermal Titration Calorimetry […]
# dialysis tubing with a 50 kDa cut-off. ITC experiments were performed using a VP-ITC Micro […]
# ITC buffer (final ligand concentration: 100 µM). 1 % (v/v) DMSO was added to the buffers […]
# detection of dilution heat. Proteins were degassed before the experiments using a ThermoVac sample degassing station. […]
# site binding model was used for data fitting. Figures were generated using GUSSI. Experiments were carried out in triplicate.
# General synthetic methods
# Method 1: Suzuki coupling […]
# three times with ethyl acetate. The combined organic layers were washed with water, after which they were dried over Na2SO4 and filtered. The volatiles were removed under reduced
# [3] = target: T3, STAT4 SH2 domain (Homo sapiens, UniProt Q14765); assay: Competitive fluorescence polarization (FP) assay, STAT4; type: binding; details: for IC50: 28 nM STAT4, 10 nM tracer peptide; for Ki: Ki calculated from IC50, mean ± SD, n = 3
# T3 sequence (Q14765 1-748): T2 sequence (Q14765 1-748)
# Experimental: as §1
# Competitive fluorescence polarization assays were carried as previously described.[1] Proteins […]
# fluorescent-labeled peptides were used as tracers: 5-carboxyfluorescein-GpYLPQNID-OH for STAT4; 5-carboxyfluorescein-GpYDKPHVL for STAT1; 5-carboxyfluorescein-GpYLPQTV-NH2 for STAT3; 5-carboxyfluorescein-GpYLVLDKW for STAT5a/b, and 5-carboxyfluorescein- […]
# mM Tris (pH 8.0), 50 mM NaCl, 1 mM EDTA, 1 mM DTT, 0.1 % Nonidet P-40 substitute, 2 %
# DMSO. Proteins and test compound were incubated for 1 h at room temperature before the […]
# (1 picture or pasted object on this page, not shown here) […]
# fluorescent-labeled peptide was added. Samples were transferred to 384-well microtiter plates and fluorescence polarization was read after an additional 60 min of incubation time.
# Experiments were carried out in triplicate. Percent binding was calculated based on a logarithmic curve fit using OriginPro 8G software. Conversion of IC50 values to Ki-values was achieved using the published equation[2] embedded in the corresponding Excel spread sheet […]
# https://websites.umich.edu/~shaomengwanglab/software/calc_ki/ind ex.html.
# as §4, §5
Compound,IC50 [1] [µM],Ki [1] [µM],Kd [2] [µM],IC50 [3] [µM],Ki [3] [µM]
Cc1cc(-c2ccc(OP(=O)(O)O)c(F)c2)cs1 [8f],34,17 ± 2,3.1 ± 1,0.37,0.18 ± 0.03
O=P(O)(O)Oc1ccc2c(c1)Cc1ccccc1-2 [compound 11],23,12 ± 1,,1.52,0.61 ± 0.03
O=P(O)(O)Oc1ccc2c(c1)oc1ccccc12 [compound 12],53,26 ± 4,,1.78,0.71 ± 0.08
O=P(O)(O)Oc1ccc(-c2nccs2)cc1 [8c],112,55 ± 1,,8.8,4.1 ± 0.2
O=P(O)(O)Oc1ccc(-c2cccs2)cc1 [8b],19,9.4 ± 0.3,,1.09,0.5 ± 0.03
O=P(O)(O)Oc1ccc(-c2ccsc2)cc1 [8a],15.8,7.8 ± 0.7,,1.2,0.56 ± 0.06
